Assay results from US4963363A, “Phospholipid delivery vehicle for aqueous-insoluble active ingredients” (priority 1989, dated 1990).
Structures can show the parent of a compound that is named as a salt.

Assays:
[1] = Compatibility of lipid triglycerides with HXM solubilization and phospholipid emulsion
[2] = cited from earlier work
[3] = Solubility of HXM in pure triglycerides; type: physicochemical; conditions: organic solvent or mixture
[4] = tested on: humans; conditions: in vivo, iv; cited from earlier work

CCCCCCCC/C=C\CCCCCCCC(=O)OCC(COC(=O)CCCCCCC/C=C\CCCCCCCC)OC(=O)CCCCCCC/C=C\CCCCCCCC [triolein]
ability of triglyceride to solubilize HXM [1]: ineffective at solubilizing HXM

CN(C)c1nc(N(C)C)nc(N(C)C)n1 [HXM, 2,4,6-Tris(dimethylamino)-s-triazine]
solubility of the free drug in saline solution ([2]; saline solution, Wickes et al. 1985): 0.070 mg/mL | solubility of the free drug in water ([2]; water, Ames et al. 1982): 0.20 mg/mL | solubility [3]: > 50 mg/mL

CN(C)c1nc(N(C)C)nc(N(C)C)n1 [Gentisate salt of HXM]
local irritation [4]: severe local irritation
